The text below walks through data of patent US8987334B2, “Cosmetic and pharmaceutical formulations of calixarene molecules” (priority 2008, dated 2015).

The series is described as follows: Transcutaneous passage kinetics of calixarene in Franz cell. Type of series: in vitro ADME, pig. As to conditions: released from 1 ml nanoemulsion loaded with 4 mg/g calixarene; 24 hours exposure; occlusive; HPLC LD=17 ng/ml, LQ=52 ng/ml.

For the substance “1,3,5-O-Me-2,4,6-OCH2COOH-p-tert-butylcalix[6]arene [calixarene]”, the “transcutaneous passage of calixarene” value is given as “did not pass through the skin”.
